What all share (assay type): binding
Holding throughout (conditions): read-out: % released into dialysate

The target of data set [1] is T1, bovine serum albumin (BSA) (Bos taurus, UniProt P02769).
T1 construct: gene ALB
Nature of the data set: equilibrium dialysis with […]-ligand (weak retention). (In equilibrium dialysis only unbound substance equilibrates across the membrane.)

Data set [2] deals with T2, human serum albumin (HSA) (Homo sapiens, UniProt P02768).
T2 construct: gene ALB
Nature of the data set: equilibrium dialysis with […]-ligand; Trp-214 fluorescence quenching.

Data set [3] has as its target T1, bovine serum albumin (BSA). Nature of the data set: equilibrium dialysis with […]-ligand.

T1 sequence (P02769 25-607): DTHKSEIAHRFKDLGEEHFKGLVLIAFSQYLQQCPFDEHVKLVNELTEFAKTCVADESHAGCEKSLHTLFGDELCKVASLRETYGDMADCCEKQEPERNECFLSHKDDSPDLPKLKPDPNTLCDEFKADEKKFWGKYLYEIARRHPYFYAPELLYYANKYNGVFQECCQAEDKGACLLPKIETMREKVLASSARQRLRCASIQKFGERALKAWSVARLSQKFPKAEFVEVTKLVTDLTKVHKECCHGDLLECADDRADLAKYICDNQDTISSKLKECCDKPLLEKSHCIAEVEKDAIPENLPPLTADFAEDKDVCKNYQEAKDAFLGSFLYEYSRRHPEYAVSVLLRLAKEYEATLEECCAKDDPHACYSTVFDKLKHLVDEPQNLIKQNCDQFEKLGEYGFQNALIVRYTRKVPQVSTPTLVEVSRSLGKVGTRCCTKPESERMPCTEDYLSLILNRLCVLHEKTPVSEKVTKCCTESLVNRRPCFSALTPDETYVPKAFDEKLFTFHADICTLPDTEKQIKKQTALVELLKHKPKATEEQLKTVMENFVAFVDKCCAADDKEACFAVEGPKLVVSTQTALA
T2 sequence (P02768 25-609): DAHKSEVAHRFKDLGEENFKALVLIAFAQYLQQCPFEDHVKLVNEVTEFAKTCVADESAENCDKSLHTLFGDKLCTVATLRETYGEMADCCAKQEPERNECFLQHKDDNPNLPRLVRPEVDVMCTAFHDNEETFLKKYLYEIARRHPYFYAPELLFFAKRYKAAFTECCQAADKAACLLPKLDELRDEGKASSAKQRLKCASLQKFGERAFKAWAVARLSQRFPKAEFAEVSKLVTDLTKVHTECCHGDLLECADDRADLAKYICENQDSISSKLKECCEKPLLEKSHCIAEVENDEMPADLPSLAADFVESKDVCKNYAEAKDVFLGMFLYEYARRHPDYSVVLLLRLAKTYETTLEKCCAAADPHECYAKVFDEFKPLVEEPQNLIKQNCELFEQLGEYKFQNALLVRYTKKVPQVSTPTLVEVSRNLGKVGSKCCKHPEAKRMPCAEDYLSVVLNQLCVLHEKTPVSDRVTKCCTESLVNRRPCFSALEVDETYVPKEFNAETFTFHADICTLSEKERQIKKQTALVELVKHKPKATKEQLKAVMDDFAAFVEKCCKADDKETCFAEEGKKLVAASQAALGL

`Cc1ncc(CO)c(C=NNC(=O)c2ccncc2)c1O` [PIH, pyridoxal isonicotinoyl hydrazone]: the values for the fraction unbound in data set [1] and in data set [2] were 0.39 ± 0.003 and 0.06 ± 0.003, respectively.
As to `CN(C)C(=S)NN=C(c1ccccn1)c1ccccn1` [Dp44mT, di-2-pyridylketone 4,4-dimethyl-3-thiosemicarbazone], the results for the fraction unbound in data set [3] and in data set [2] were 0.21 ± 0.005 and 0.22 ± 0.01, respectively.
On the same counts, the results for `CCNC(=S)N/N=C(\c1ccccc1)c1ccccn1` [Bp4eT, 2-benzoylpyridine 4-ethyl-3-thiosemicarbazone] are 0.09 ± 0.003 and 0.04 ± 0.003.

The values above are taken from paper PMC4496362, “Potentiating the cellular targeting and anti-tumor activity of Dp44mT via binding to human serum albumin: two saturable mechanisms of Dp44mT uptake by cells” (Oncotarget, 2015).
